“And” between values parts separate entries of the source, which are not always exact repeats. Equal entries are not always repeated. Each block holds one compound with its values, some of them ahead of it.
Tested on: OVCAR-5 complex spheroids, viability
Experiment: Anticancer human tumor OVCAR-5 cell line growth inhibition;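 further: spheroids exposed to agents for seven days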;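 on viability, T/C: 100% = DMSO vehicle control wells viability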
Conditions: for viability, T/C: stronger effect = lower value
How it was run: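 Complex spheroids of tumor cells with HUVEC and human MSCs, exposed to iadademstat combined with other agents. Each agent tested in half-log steps from near clinical Cmax (else 10 microM top), DMSO ≤0.25%.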

[1] = curve of first compound, second compound 0.1 µM
[2] = curve of first compound, second compound 0.316 µM
[3] = curve of first compound, second compound 1 µM
[4] = curve of first compound, second compound 3.16 µM
[5] = curve of first compound, second compound 10 µM
[6] = second compound 0.1 µM, first compound 0.00316 µM
[7] = second compound 0.1 µM, first compound 0.01 µM
[8] = second compound 0.1 µM, first compound 0.0316 µM
[9] = second compound 0.1 µM, first compound 0.1 µM
[10] = second compound 0.316 µM, first compound 0.00316 µM
[11] = second compound 0.316 µM, first compound 0.01 µM
[12] = second compound 0.316 µM, first compound 0.0316 µM
[13] = second compound 0.316 µM, first compound 0.1 µM
[14] = second compound 1 µM, first compound 0.00316 µM
[15] = second compound 1 µM, first compound 0.01 µM
[16] = second compound 1 µM, first compound 0.0316 µM
[17] = second compound 1 µM, first compound 0.1 µM
[18] = second compound 3.16 µM, first compound 0.00316 µM
[19] = second compound 3.16 µM, first compound 0.01 µM
[20] = second compound 3.16 µM, first compound 0.0316 µM
[21] = second compound 3.16 µM, first compound 0.1 µM
[22] = second compound 10 µM, first compound 0.00316 µM
[23] = second compound 10 µM, first compound 0.01 µM
[24] = second compound 10 µM, first compound 0.0316 µM
[25] = second compound 10 µM, first compound 0.1 µM
[26] = second compound 0.1 µM, first compound 0.00949 µM
[27] = second compound 0.1 µM, first compound 0.03 µM
[28] = second compound 0.1 µM, first compound 0.0949 µM
[29] = second compound 0.1 µM, first compound 0.3 µM
[30] = second compound 0.316 µM, first compound 0.00949 µM
[31] = second compound 0.316 µM, first compound 0.03 µM
[32] = second compound 0.316 µM, first compound 0.0949 µM
[33] = second compound 0.316 µM, first compound 0.3 µM
[34] = second compound 1 µM, first compound 0.00949 µM
[35] = second compound 1 µM, first compound 0.03 µM
[36] = second compound 1 µM, first compound 0.0949 µM
[37] = second compound 1 µM, first compound 0.3 µM
[38] = second compound 3.16 µM, first compound 0.00949 µM
[39] = second compound 3.16 µM, first compound 0.03 µM
[40] = second compound 3.16 µM, first compound 0.0949 µM
[41] = second compound 3.16 µM, first compound 0.3 µM
[42] = second compound 10 µM, first compound 0.00949 µM
[43] = second compound 10 µM, first compound 0.03 µM
[44] = second compound 10 µM, first compound 0.0949 µM
[45] = second compound 10 µM, first compound 0.3 µM
[46] = second compound 0.1 µM, first compound 0.949 µM
[47] = second compound 0.1 µM, first compound 3 µM
[48] = second compound 0.316 µM, first compound 0.949 µM
[49] = second compound 0.316 µM, first compound 3 µM
[50] = second compound 1 µM, first compound 0.949 µM
[51] = second compound 1 µM, first compound 3 µM
[52] = second compound 3.16 µM, first compound 0.949 µM
[53] = second compound 3.16 µM, first compound 3 µM
[54] = second compound 10 µM, first compound 0.949 µM
[55] = second compound 10 µM, first compound 3 µM

SMILES: CC[C@@]1(O)C(=O)OCc2c1cc1n(c2=O)Cc2cc3c(CN(C)C)c(O)ccc3nc2-1 + NC1CCC(NC2CC2c2ccccc2)CC1
IC50 [1]: 5.66 nM | IC50 [2]: 10.9 nM | IC50 [3]: 11.2 nM | IC50 [4]: 12.1 nM | IC50 [5]: 9.89 nM | viability, T/C (second compound 0.1 µM, first compound 0.000316 µM): 103% | viability, T/C (second compound 0.1 µM, first compound 0.001 µM): 105% | viability, T/C [6]: 58.8% | viability, T/C [7]: 50.2% | viability, T/C [8]: 48% | viability, T/C [9]: 23.4% | viability, T/C (second compound 0.316 µM, first compound 0.000316 µM): 112% | viability, T/C (second compound 0.316 µM, first compound 0.001 µM): 97.7% | viability, T/C [10]: 56.5% | viability, T/C [11]: 49.8% | viability, T/C [12]: 50% | viability, T/C [13]: 24% | viability, T/C (second compound 1 µM, first compound 0.000316 µM): 105% | viability, T/C (second compound 1 µM, first compound 0.001 µM): 93.3% | viability, T/C [14]: 56.9% | viability, T/C [15]: 51.2% | viability, T/C [16]: 47.7% | viability, T/C [17]: 26.7% | viability, T/C (second compound 3.16 µM, first compound 0.000316 µM): 109% | viability, T/C (second compound 3.16 µM, first compound 0.001 µM): 98.5% | viability, T/C [18]: 62.4% | viability, T/C [19]: 51.3% | viability, T/C [20]: 49.3% | viability, T/C [21]: 28.2% | viability, T/C (second compound 10 µM, first compound 0.000316 µM): 91.1% | viability, T/C (second compound 10 µM, first compound 0.001 µM): 85.5% | viability, T/C [22]: 51.8% | viability, T/C [23]: 49.3% | viability, T/C [24]: 48.7% | viability, T/C [25]: 27.7%

SMILES: Nc1ccn(C2OC(CO)C(O)C2(F)F)c(=O)n1 (configuration not stated) + NC1CC1c1ccc(-c2cccc(O)c2)cc1
IC50 [1]: < 0.949 nM | IC50 [2]: < 0.949 nM | IC50 [3]: < 0.949 nM | IC50 [4]: < 0.949 nM | IC50 [5]: < 0.949 nM | viability, T/C (second compound 0.1 µM, first compound 0.000949 µM): 25.5% | viability, T/C (second compound 0.1 µM, first compound 0.003 µM): 27.5% | viability, T/C [26]: 26.3% | viability, T/C [27]: 27.9% | viability, T/C [28]: 24.9% | viability, T/C [29]: 26.1% | viability, T/C (second compound 0.316 µM, first compound 0.000949 µM): 26.9% | viability, T/C (second compound 0.316 µM, first compound 0.003 µM): 26.6% | viability, T/C [30]: 28% | viability, T/C [31]: 27.6% | viability, T/C [32]: 27.1% | viability, T/C [33]: 28.5% | viability, T/C (second compound 1 µM, first compound 0.000949 µM): 27.1% | viability, T/C (second compound 1 µM, first compound 0.003 µM): 25% | viability, T/C [34]: 24.1% | viability, T/C [35]: 27.9% | viability, T/C [36]: 24.8% | viability, T/C [37]: 25.4% | viability, T/C (second compound 3.16 µM, first compound 0.000949 µM): 27.5% | viability, T/C (second compound 3.16 µM, first compound 0.003 µM): 28.6% | viability, T/C [38]: 27.1% | viability, T/C [39]: 27.9% | viability, T/C [40]: 29.5% | viability, T/C [41]: 25.9% | viability, T/C (second compound 10 µM, first compound 0.000949 µM): 29% | viability, T/C (second compound 10 µM, first compound 0.003 µM): 29.1% | viability, T/C [42]: 28.6% | viability, T/C [43]: 26.9% | viability, T/C [44]: 28.9% | viability, T/C [45]: 28.4%

IC50 (curve of compound): > 10000 nM
SMILES: O=C(c1cc(Cc2n[nH]c(=O)c3ccccc23)ccc1F)N1CCN(C(=O)C2CC2)CC1
viability, T/C (compound 0.0316 µM): 92.2% and 111% | viability, T/C (compound 0.1 µM): 109% and 98.7% | viability, T/C (compound 0.316 µM): 95.8% and 102% | viability, T/C (compound 1 µM): 90.8% and 91.7% | viability, T/C (compound 3.16 µM): 87.7% and 73.7% | viability, T/C (compound 10 µM): 79.7% and 69.6%

SMILES: CCN(c1cc(-c2ccc(CN3CCOCC3)cc2)cc(C(=O)NCc2c(C)cc(C)[nH]c2=O)c1C)C1CCOCC1 + NC1CC1c1ccc(-c2cccc(O)c2)cc1
IC50 [1]: > 3000 nM | IC50 [2]: > 3000 nM | IC50 [3]: > 3000 nM | IC50 [4]: > 3000 nM | IC50 [5]: > 3000 nM | viability, T/C [26]: 87.6% | viability, T/C [27]: 98.8% | viability, T/C [28]: 106% | viability, T/C [29]: 97% | viability, T/C [46]: 107% | viability, T/C [47]: 92.6% | viability, T/C [30]: 102% | viability, T/C [31]: 108% | viability, T/C [32]: 99.3% | viability, T/C [33]: 94.8% | viability, T/C [48]: 104% | viability, T/C [49]: 102% | viability, T/C [34]: 91.5% | viability, T/C [35]: 84.4% | viability, T/C [36]: 94.3% | viability, T/C [37]: 103% | viability, T/C [50]: 91.9% | viability, T/C [51]: 98.5% | viability, T/C [38]: 88.8% | viability, T/C [39]: 87.7% | viability, T/C [40]: 90.4% | viability, T/C [41]: 90.9% | viability, T/C [52]: 90.6% | viability, T/C [53]: 92.9% | viability, T/C [42]: 86.7% | viability, T/C [43]: 91.9% | viability, T/C [44]: 85.5% | viability, T/C [45]: 93.4% | viability, T/C [54]: 95.5% | viability, T/C [55]: 91.1%

SMILES: Nc1ccccc1NC(=O)c1ccc(CNC(=O)OCc2cccnc2)cc1 + NC1CCC(NC2CC2c2ccccc2)CC1
IC50 [1]: 246 nM | IC50 [2]: 258 nM | IC50 [3]: 292 nM | IC50 [4]: 252 nM | IC50 [5]: 170 nM | viability, T/C [26]: 97.2% | viability, T/C [27]: 88.6% | viability, T/C [28]: 69% | viability, T/C [29]: 46.3% | viability, T/C [46]: 23.8% | viability, T/C [47]: 9.78% | viability, T/C [30]: 109% | viability, T/C [31]: 90.8% | viability, T/C [32]: 74.4% | viability, T/C [33]: 45.5% | viability, T/C [48]: 25% | viability, T/C [49]: 10.4% | viability, T/C [34]: 101% | viability, T/C [35]: 97% | viability, T/C [36]: 75.6% | viability, T/C [37]: 48% | viability, T/C [50]: 27.3% | viability, T/C [51]: 10.3% | viability, T/C [38]: 98.9% | viability, T/C [39]: 78.5% | viability, T/C [40]: 69.7% | viability, T/C [41]: 47% | viability, T/C [52]: 26.5% | viability, T/C [53]: 10.8% | viability, T/C [42]: 86.2% | viability, T/C [43]: 71.6% | viability, T/C [44]: 57.2% | viability, T/C [45]: 42.4% | viability, T/C [54]: 28.6% | viability, T/C [55]: 9.2%

SMILES: COc1cc(Nc2ncc3c(n2)-c2ccc(Cl)cc2C(c2c(F)cccc2OC)=NC3)ccc1C(=O)O + NC1CCC(NC2CC2c2ccccc2)CC1
IC50 [1]: > 1000 nM | IC50 [2]: > 1000 nM | IC50 [3]: 999 nM | IC50 [4]: > 1000 nM | IC50 [5]: > 1000 nM | viability, T/C [6]: 103% | viability, T/C [7]: 99.1% | viability, T/C [8]: 83.5% | viability, T/C [9]: 61% | viability, T/C (second compound 0.1 µM, first compound 0.316 µM): 64.1% | viability, T/C (second compound 0.1 µM, first compound 1 µM): 54.6% | viability, T/C [10]: 94.5% | viability, T/C [11]: 93.2% | viability, T/C [12]: 78.4% | viability, T/C [13]: 64% | viability, T/C (second compound 0.316 µM, first compound 0.316 µM): 57.3% | viability, T/C (second compound 0.316 µM, first compound 1 µM): 56.6% | viability, T/C [14]: 87.3% | viability, T/C [15]: 90.3% | viability, T/C [16]: 80.2% | viability, T/C [17]: 62.7% | viability, T/C (second compound 1 µM, first compound 0.316 µM): 59.8% | viability, T/C (second compound 1 µM, first compound 1 µM): 47.4% | viability, T/C [18]: 83.6% | viability, T/C [19]: 83.7% | viability, T/C [20]: 75.2% | viability, T/C [21]: 59.3% | viability, T/C (second compound 3.16 µM, first compound 0.316 µM): 60.7% | viability, T/C (second compound 3.16 µM, first compound 1 µM): 52.5% | viability, T/C [22]: 83.5% | viability, T/C [23]: 78.7% | viability, T/C [24]: 79.7% | viability, T/C [25]: 57.6% | viability, T/C (second compound 10 µM, first compound 0.316 µM): 55.8% | viability, T/C (second compound 10 µM, first compound 1 µM): 45.5%

Reference: PubChem BioAssay AID1918956 (Molecular Pharmacology Branch, DTP, NCI, 2023)
